In patent US20080119513A1, “Sulfonamide Derivative Selectively Inhibiting Mmp-13” (priority 2004, published 2008) one finds IC50 data, which are given here for 24 compounds.

Molecules are shown by their SMILES.

Type in all cases: biochemical
One assay addresses T1, MMP-12 (Homo sapiens, UniProt P39900).
T1 construct: In regard to MMP-12, catalytic domain (^100Phe˜^263Gly) was amplified with RT-PCR; His-tag; enterokinase digestion-site
Description: Assay for inhibitory activities on MMPs (fluorogenic peptide substrate), MMP-12. A digest of the protocol:
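Refolded His-tagged human MMP-12 catalytic domain (Phe100–Gly263) expressed in E. coli, assayed with fluorogenic substrate MOCAc-Pro-Leu-Gly-Leu-A2Pr(DNP)-Ala-Arg-NH2. Percent inhibition calculated from fluorescence with and without enzyme and inhibitor, corrected for inhibitor-only and substrate-only blanks; IC50 is concentration giving 50% inhibition.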

In the next assay the target is T2, MMP-2 (Homo sapiens, UniProt P08253).
T2 sequence (P08253 110-660): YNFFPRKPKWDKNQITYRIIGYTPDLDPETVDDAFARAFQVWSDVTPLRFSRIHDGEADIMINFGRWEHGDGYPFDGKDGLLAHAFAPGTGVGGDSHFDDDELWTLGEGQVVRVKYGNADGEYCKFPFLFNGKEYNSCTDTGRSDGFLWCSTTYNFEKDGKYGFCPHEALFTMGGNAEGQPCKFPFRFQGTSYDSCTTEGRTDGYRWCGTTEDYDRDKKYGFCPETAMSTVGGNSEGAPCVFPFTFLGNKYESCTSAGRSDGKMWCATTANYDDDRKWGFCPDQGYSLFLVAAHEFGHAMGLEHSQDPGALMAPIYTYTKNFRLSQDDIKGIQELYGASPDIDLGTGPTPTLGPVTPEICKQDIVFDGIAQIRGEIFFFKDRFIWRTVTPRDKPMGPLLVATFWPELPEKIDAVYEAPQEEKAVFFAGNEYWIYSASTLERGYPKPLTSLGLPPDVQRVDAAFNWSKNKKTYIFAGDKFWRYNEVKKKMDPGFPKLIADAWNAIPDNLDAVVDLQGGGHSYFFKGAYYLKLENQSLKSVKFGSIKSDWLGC
Description: Assay for inhibitory activities on MMPs (fluorogenic peptide substrate), MMP-2. A digest of the protocol:
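Human MMP-2 activity measured with fluorogenic MOCAc-Pro-Leu-Gly-Leu-A2Pr(DNP)-Ala-Arg-NH2 substrate. Percent inhibition derived from fluorescence with and without enzyme and inhibitor, corrected for substrate and inhibitor background. IC50 taken as concentration giving 50% inhibition.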

The target of the next assay is T3, MMP-8 (Homo sapiens, UniProt P22894).
T3 construct: In regard to MMP-8, catalytic domain (^99Phe˜^262Gly) was amplified with PCR; His-tag; enterokinase digestion-site
T3 sequence (P22894 99-262): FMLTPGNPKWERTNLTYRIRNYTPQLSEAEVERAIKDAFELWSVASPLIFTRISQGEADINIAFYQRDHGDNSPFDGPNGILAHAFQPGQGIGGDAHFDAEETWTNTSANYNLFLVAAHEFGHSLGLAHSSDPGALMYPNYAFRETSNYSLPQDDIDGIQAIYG
Description: Assay for inhibitory activities on MMPs (fluorogenic peptide substrate), MMP-8. The method in brief: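 Human MMP-8 catalytic domain (Phe99–Gly262), His-tagged, E. coli-expressed, urea-solubilised, refolded. Fluorogenic substrate MOCAc-Pro-Leu-Gly-Leu-A2Pr(DNP)-Ala-Arg-NH2; fluorescence read with enzyme/inhibitor, substrate/inhibitor, enzyme-only and substrate-only wells. % inhibition = {1-(A−B)/(C−D)}×100; IC50 is concentration giving 50% inhibition.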

For another assay, the target named is MMP-9 (Homo sapiens, UniProt P14780). As to the kind of experiment: Assay for inhibitory activities on MMPs (fluorogenic peptide substrate), MMP-9. A digest of the protocol: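 ProMMP-9 purified from TPA-stimulated HT1080 cells and activated with TPCK-trypsin, assayed with fluorogenic MOCAc-Pro-Leu-Gly-Leu-A2Pr(DNP)-Ala-Arg-NH2. Percent inhibition from fluorescence of reactions with and without enzyme and inhibitor; IC50 as concentration giving 50% inhibition.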
MMP-9, sequence (P14780 107-707): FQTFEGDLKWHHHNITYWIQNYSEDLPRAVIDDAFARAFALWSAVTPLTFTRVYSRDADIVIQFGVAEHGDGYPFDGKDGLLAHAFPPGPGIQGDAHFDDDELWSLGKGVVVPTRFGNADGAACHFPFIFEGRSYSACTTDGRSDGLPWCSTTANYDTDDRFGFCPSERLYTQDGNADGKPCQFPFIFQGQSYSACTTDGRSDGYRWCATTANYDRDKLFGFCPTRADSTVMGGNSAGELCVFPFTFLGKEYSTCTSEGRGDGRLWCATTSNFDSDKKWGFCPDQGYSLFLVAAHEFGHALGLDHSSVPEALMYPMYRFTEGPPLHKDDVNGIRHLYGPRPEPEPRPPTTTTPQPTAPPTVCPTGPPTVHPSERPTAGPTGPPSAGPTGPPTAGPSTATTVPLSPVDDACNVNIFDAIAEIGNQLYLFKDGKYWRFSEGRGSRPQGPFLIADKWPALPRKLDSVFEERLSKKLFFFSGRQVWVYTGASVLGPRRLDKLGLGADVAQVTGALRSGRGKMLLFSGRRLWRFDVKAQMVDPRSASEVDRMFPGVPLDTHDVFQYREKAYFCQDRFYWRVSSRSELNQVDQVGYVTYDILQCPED

The next assay addresses T4, MMP-13 (Homo sapiens, UniProt P45452).
T4 construct: catalytic domain (^104Tyr˜^267Gly) was amplified with RT-PCR; His-tag; enterokinase digestion-site
Description: Assay for inhibitory activities on MMPs (fluorogenic peptide substrate), MMP-13. A digest of the protocol: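 Catalytic domain cloned from IL-1/TNF-stimulated SW1353 cells, His-tagged and expressed in E. coli, then refolded from urea. Activity read by fluorescence on the MOCAc peptide substrate. IC50 taken from % inhibition = {1-(A-B)/(C-D)}×100, with blanks lacking enzyme and/or inhibitor.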

T1 sequence (P39900 100-263): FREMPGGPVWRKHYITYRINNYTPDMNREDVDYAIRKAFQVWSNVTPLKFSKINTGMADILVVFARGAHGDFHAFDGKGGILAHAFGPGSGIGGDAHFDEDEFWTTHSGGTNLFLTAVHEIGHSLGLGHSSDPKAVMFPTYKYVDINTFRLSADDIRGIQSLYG

For orientation: IC50 means the midpoint of a concentration-inhibition curve. Consider `O=C(Nc1ccc(-c2ccc(S(=O)(=O)N[C@H](Cc3ccccc3)C(=O)O)cc2)cc1)c1cccs1` [VI-7], for which the IC50 at MMP-12 is 611 nM; against MMP-2, 156 nM; against MMP-8 it was 2350 nM; on MMP-9, 4340 nM; at MMP-13, 33.3 nM.

For `COc1ccc(C(=O)Nc2ccc(-c3ccc(S(=O)(=O)N[C@H](Cc4ccccc4)C(=O)O)cc3)cc2)cc1OC` [VI-8], the IC50 was 839 nM on MMP-12; 1050 nM against MMP-2; 723 nM against MMP-8; > 10000 nM on MMP-9; 27.2 nM against MMP-13.

For the compound `O=C(/C=C/c1ccccc1)Nc1ccc(-c2ccc(S(=O)(=O)N[C@H](Cc3ccccc3)C(=O)O)cc2)cc1` [VI-9], the 50% inhibitory concentration (IC50) is > 10000 nM at MMP-12; 178 nM on MMP-2; > 10000 nM against MMP-8; > 10000 nM on MMP-9; 44.6 nM on MMP-13.

Regarding `O=C(Nc1ccc(-c2ccc(S(=O)(=O)N[C@H](Cc3ccccc3)C(=O)O)cc2)cc1)c1ccc2ccccc2c1` [VI-10], the IC50 against MMP-12 is > 10000 nM; on MMP-2, > 10000 nM; against MMP-8, > 10000 nM; at MMP-9, > 10000 nM; at MMP-13 it was 21.4 nM.

Take `O=C(Nc1ccc(-c2ccc(S(=O)(=O)N[C@H](Cc3ccccc3)C(=O)O)cc2)cc1)c1ccc(F)c(F)c1` [VI-11]: the IC50 is 9010 nM against MMP-12; 139 nM on MMP-2; > 10000 nM at MMP-8; > 10000 nM at MMP-9; 38.8 nM on MMP-13.

For `O=C(Nc1ccc(-c2ccc(S(=O)(=O)N[C@H](Cc3ccccc3)C(=O)O)cc2)cc1)c1ccc2c(c1)OCO2` [VI-12], the IC50 against MMP-12 is 334 nM; against MMP-2 it was 197 nM; against MMP-8, 1740 nM; at MMP-9 it was > 10000 nM; against MMP-13, 31.1 nM.

Take `O=C(C#Cc1ccccc1)Nc1ccc(-c2ccc(S(=O)(=O)N[C@H](Cc3ccccc3)C(=O)O)cc2)cc1` [VI-13]: the IC50 against MMP-12 is 503 nM; against MMP-2 it was 167 nM; at MMP-8 it was 641 nM; at MMP-9, > 10000 nM; on MMP-13 it was 27.2 nM.

Regarding `COc1ccc(C(=O)Nc2ccc(-c3ccc(S(=O)(=O)N[C@H](C)C(=O)O)cc3)cc2)cc1` [VI-15], the IC50 at MMP-12 is 801 nM; against MMP-2, 222 nM; against MMP-8, > 10000 nM; at MMP-9, > 10000 nM; at MMP-13, 55.5 nM.

For the compound `COc1cccc(C(=O)Nc2ccc(-c3ccc(S(=O)(=O)N[C@H](C)C(=O)O)cc3)cc2)c1` [VI-16], the IC50 at MMP-12 is 1020 nM; at MMP-2, 563 nM; against MMP-8 it was 1100 nM; at MMP-9, > 10000 nM; against MMP-13, 77.1 nM.

Turning to `Cc1ccc(C(=O)Nc2ccc(-c3ccc(S(=O)(=O)N[C@H](C)C(=O)O)cc3)cc2)cc1` [VI-17], the IC50 on MMP-12 is 952 nM; against MMP-2, 127 nM; at MMP-8, > 10000 nM; on MMP-9 it was > 10000 nM; at MMP-13 it was 35.6 nM.

Take `C[C@@H](NS(=O)(=O)c1ccc(-c2ccc(NC(=O)c3ccc(OC(F)(F)F)cc3)cc2)cc1)C(=O)O` [VI-21]: the IC50 against MMP-12 was 522 nM; against MMP-2, 105 nM; on MMP-8, > 10000 nM; on MMP-9, > 10000 nM; against MMP-13, 36.8 nM.

Regarding `COc1ccc(C(=O)Nc2ccc(-c3ccc(S(=O)(=O)N[C@H](C)C(=O)O)cc3)cc2)cc1OC` [VI-24], the IC50 against MMP-12 is 443 nM; against MMP-2, 839 nM; at MMP-8 it was 1520 nM; at MMP-9 it was > 10000 nM; against MMP-13 it was 50.1 nM.

On to `COc1ccc(C(=O)Nc2ccc(-c3ccc(S(=O)(=O)N[C@@H](CCSC)C(=O)O)cc3)cc2)cc1OC` [VI-35], for which the IC50 was 232 nM against MMP-12; 2220 nM against MMP-2; 215 nM against MMP-8; > 10000 nM at MMP-9; 68.7 nM at MMP-13.

Regarding `O=C(Nc1ccc(-c2ccc(S(=O)(=O)N[C@@H](Cc3ccccc3)C(=O)O)cc2)cc1)c1ccc2ccccc2c1` [VI-36], the IC50 against MMP-12 was 7970 nM; at MMP-2 it was > 10000 nM; against MMP-8 it was > 10000 nM; on MMP-9, > 10000 nM; on MMP-13 it was 65.1 nM.

In the case of `C[C@@H](NS(=O)(=O)c1ccc(-c2ccc(NC(=O)c3ccc4ccccc4c3)cc2)cc1)C(=O)O` [VI-37], the IC50 against MMP-12 was > 10000 nM; at MMP-2 it was 726 nM; against MMP-8, > 10000 nM; at MMP-9, > 10000 nM; against MMP-13, 38.1 nM.

Consider `CC(C)[C@@H](NS(=O)(=O)c1ccc(-c2ccc(NC(=O)c3ccc4ccccc4c3)cc2)cc1)C(=O)O` [VI-39], for which the IC50 against MMP-12 was > 10000 nM; on MMP-2 it was 664 nM; against MMP-8, 5400 nM; at MMP-9, > 10000 nM; against MMP-13, 81.1 nM.

On to `CC(C)C[C@@H](NS(=O)(=O)c1ccc(-c2ccc(NC(=O)c3ccc4ccccc4c3)cc2)cc1)C(=O)O` [VI-41], for which the IC50 against MMP-12 is > 10000 nM; on MMP-2, > 10000 nM; at MMP-8, > 10000 nM; on MMP-9, > 10000 nM; against MMP-13 it was 178 nM.

As for `CCC(C)[C@H](NS(=O)(=O)c1ccc(-c2ccc(NC(=O)c3ccc4ccccc4c3)cc2)cc1)C(=O)O` (stereo partly drawn) [VI-43], the IC50 at MMP-12 was 66.9 nM; against MMP-2, 243 nM; on MMP-8, 63.2 nM; on MMP-9, > 10000 nM; at MMP-13 it was 13.7 nM.

Consider `CSCC[C@H](NS(=O)(=O)c1ccc(-c2ccc(NC(=O)c3ccc4ccccc4c3)cc2)cc1)C(=O)O` [VI-44], for which the IC50 against MMP-12 was 162 nM; against MMP-2 it was 502 nM; against MMP-8, 252 nM; on MMP-9, > 10000 nM; at MMP-13 it was 48.4 nM.

For `COc1ccc2cc(C(=O)Nc3ccc(-c4ccc(S(=O)(=O)N[C@H](Cc5ccccc5)C(=O)O)cc4)cc3)ccc2c1` [VI-45], the IC50 is > 10000 nM at MMP-12; > 10000 nM on MMP-2; > 10000 nM on MMP-8; > 10000 nM on MMP-9; 61.3 nM at MMP-13.

As for `O=C(Nc1ccc(-c2ccc(S(=O)(=O)N[C@H](Cc3ccccc3)C(=O)O)cc2)cc1)c1cc2ccccc2s1` [VI-47], the IC50 against MMP-12 was > 10000 nM; on MMP-2, > 10000 nM; on MMP-8, > 10000 nM; at MMP-9 it was > 10000 nM; against MMP-13 it was 136 nM.

On to `CC(C)(C)[C@H](NS(=O)(=O)c1ccc(-c2ccc(NC(=O)c3cc4ccccc4s3)cc2)cc1)C(=O)O` [VI-49], for which the IC50 at MMP-12 is 98.8 nM; against MMP-2, 241 nM; against MMP-8 it was 158 nM; at MMP-9, > 10000 nM; at MMP-13, 10 nM.

For `O=C(Nc1ccc(-c2ccc(S(=O)(=O)N[C@H](Cc3ccccc3)C(=O)O)s2)cc1)c1ccc2ccccc2c1` [VI-51], the IC50 was > 10000 nM at MMP-12; 292 nM against MMP-2; > 10000 nM on MMP-8; > 10000 nM on MMP-9; 22.2 nM against MMP-13.

As to `CC(C)[C@@H](NS(=O)(=O)c1ccc(-c2ccc(COc3ccc4ccccc4c3)cc2)cc1)C(=O)O` [VII-12], the IC50 was 95.7 nM on MMP-12; 3720 nM on MMP-2; 140 nM at MMP-8; > 10000 nM on MMP-9; 26.2 nM at MMP-13.
